The text below walks through data of ChEMBL document CHEMBL3639109, “Macrocyclic integrase inhibitors” (2013).

pIC50: −log10 of the molar value.

This assay concerns the target Gag-Pol polyprotein (Human immunodeficiency virus type 1 group M subtype B (isolateBRU/LAI) (HIV-1), UniProt P03367). In words: Inhibition Assay: Inhibition of HIV integrase.
As a reminder, the pIC50 is −log10 of the IC50, conventionally taken in molar units. Regarding `CNS(=O)(=O)CCCCNC(=O)OC(C)(C)C`, the pIC50 is 5.92.

As for `CNS(=O)(=O)CCCCCl`, the pIC50 was 6.00.

The molecule `CNS(=O)(=O)CCCCC#N` showed a negative logarithm of the IC50 (pIC50) of 5.80.

Take `COC(=O)c1nc(Br)c2cccnc2c1OCc1ccccc1`: the negative-log IC50 (pIC50) was 6.02.

`CCOC(=O)c1cc(F)ccc1C#N` had a negative logarithm of the IC50 (pIC50) of 4.17.

With `COC(=O)c1nc(Br)c2cccnc2c1OS(=O)(=O)c1ccc(C)cc1`, the pIC50 was 6.70.

As for `CNS(=O)(=O)CCCCN=[N+]=[N-]`, the pIC50 was 6.60.

Consider `CNS(=O)(=O)CCCCN`, for which the pIC50 is 6.44.
